Experimental data from patent publication US12187709B2 (Genentech, Inc., priority 2021, dated 2025).

What was measured:
[1] = target: Human Cbl-b (residues 40-426) (Homo sapiens (Human), UniProt Q13191); assay: Cbl-b SPR assay; assay type: binding; conditions: for Fold of selectivity: C-cbl SPR Kd vs Cbl-b SPR Kd; for Kd: SPR, 20° C.
How it was run: (§1)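 SPR, multi-cycle, 6-pt 2-fold series, blanks flanking for double referencing; capture 1300-1500 RU; contact 60 s at 40 μl/min; dissoc. 120-1200 s (~4-5 half-lives). 1:1 fit. Chaser variant: single cycle, 5 conc., top 500 nM, 120 s contact, 450 s dissociation.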

c-Cbl = c-Cbl (Homo sapiens (Human), UniProt P22681); assay: C-Cbl LCK Ub TR-FRET assay (C-cbl Lck HTRF); assay type: biochemical
How it was run: (§2)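 Detection reagents added, brief spin, 20 min RT. IC50 fit normalized to no-LCK (low) and DMSO (high) controls.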

Cbl-b = Cbl-b (Homo sapiens (Human), UniProt Q13191); assay: Cbl-b LCK Ub TR-FRET assay (Cbl-b Lck HTRF); assay type: biochemical; conditions: for IC50: Cbl-b LCK Ub TR-FRET; for fold-selectivity (Cbl-b over C-cbl) / (fold-selectivity) Cbl-b and C-Cbl Selectivity: ratio C-cbl Lck HTRF IC50 / Cbl-b Lck HTRF IC50
How it was run: as §2

c-Cbl (residues 47-435) = c-Cbl (residues 47-435) (Homo sapiens (Human), UniProt P22681); assay: c-Cbl SPR assay; assay type: binding; conditions: 20° C.
How it was run: as §1

Human Cbl-b (residues 40-426), sequence (Q13191 40-426): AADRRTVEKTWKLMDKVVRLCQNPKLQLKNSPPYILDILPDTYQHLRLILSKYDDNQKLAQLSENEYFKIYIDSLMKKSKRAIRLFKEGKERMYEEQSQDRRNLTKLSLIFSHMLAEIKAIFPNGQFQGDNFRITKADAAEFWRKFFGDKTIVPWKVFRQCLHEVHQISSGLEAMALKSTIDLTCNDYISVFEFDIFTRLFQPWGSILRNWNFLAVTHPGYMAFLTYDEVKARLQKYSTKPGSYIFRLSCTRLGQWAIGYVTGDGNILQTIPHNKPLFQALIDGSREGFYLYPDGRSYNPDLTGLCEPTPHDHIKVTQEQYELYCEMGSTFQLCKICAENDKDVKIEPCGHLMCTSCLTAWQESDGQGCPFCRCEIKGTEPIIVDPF
Cbl-b, sequence (Q13191 40-426): as above
c-Cbl (residues 47-435), sequence (P22681 47-435): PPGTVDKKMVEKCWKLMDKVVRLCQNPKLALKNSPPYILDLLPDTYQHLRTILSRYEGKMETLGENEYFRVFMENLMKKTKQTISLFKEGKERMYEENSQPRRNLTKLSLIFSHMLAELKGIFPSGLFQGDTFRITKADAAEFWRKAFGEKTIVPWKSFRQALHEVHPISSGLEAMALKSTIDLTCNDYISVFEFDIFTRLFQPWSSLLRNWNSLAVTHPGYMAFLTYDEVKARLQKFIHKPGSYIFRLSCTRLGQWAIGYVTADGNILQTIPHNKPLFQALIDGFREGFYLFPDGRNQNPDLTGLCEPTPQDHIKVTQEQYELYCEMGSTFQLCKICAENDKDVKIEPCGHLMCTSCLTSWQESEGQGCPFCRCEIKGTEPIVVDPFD
c-Cbl, sequence (P22681 47-435): as above

Structure (SMILES)	Fold of selectivity [1] [×]	Kd [1] [nM]	IC50 (c-Cbl) [nM]	IC50 (Cbl-b) [nM]	fold-selectivity (Cbl-b over C-cbl) (Cbl-b)	Kd (c-Cbl (residues 47-435)) [nM]	IC50 (Cbl-b; Example 121) [nM]	(fold-selectivity) Cbl-b and C-Cbl Selectivity (Cbl-b) [x]
C[C@@H](NC1(C)CCC1)c1cc2c(c(C(F)(F)F)c1)CN(c1cccc(C3(c4nncn4C)CC(F)(F)C3)c1)C2=O (single isomer, unassigned) [Compound 174]	2.8	0.4	6.8	8.5	0.80x	1.1		
C=C[C@@H](C)Oc1cc(N2Cc3c(cc(CNC4(C)CCC4)cc3C(F)(F)F)C2=O)cc([C@]2(c3nncn3C)C[C@@H](OC)C2)c1 [Compound 213, 2-(3-((R)-but-3-en-2-yloxy)-5-((1s,3S)-3-methoxy-1-(4-methyl-4H-1,2,4-triazol-3-yl)cyclobutyl)phenyl)-6-(((1-methylcyclobutyl)amino)methyl)-4-(trifluoromethyl)isoindolin-1-one]	1.8	160	440	240	1.9x	300		
C[C@H](c1cccc(N2Cc3c(cc(CNC4(C)CCC4)cc3C(F)(F)F)C2=O)c1)c1nncn1C (single isomer, unassigned) [Compound 170]	2.8	4.9	12	12	1.0x	15		
Cn1cnnc1[C@@H](c1cccc(N2Cc3c(cc(CNC4(C)CCC4)cc3C(F)(F)F)C2=O)c1)C1CCCC1 [Compound 256, (R)-2-(3-(cyclopentyl(4-methyl-4H-1,2,4-triazol-3-yl)methyl)phenyl)-6-(((1-methylcyclobutyl)amino)methyl)-4-(trifluoromethyl)isoindolin-1-one]	14	180	1400	210	6.5x	2500		
Cn1cnnc1[C@]1(c2cccc(N3Cc4c(cc(CNC5(C)CCC5)cc4C(F)(F)F)C3=O)c2)C[C@@H](C#N)C1 [Compound 24, (1r,3r)-3-(4-methyl-4H-1,2,4-triazol-3-yl)-3-(3-(6-(((1-methylcyclobutyl)amino)methyl)-1-oxo-4-(trifluoromethyl)isoindolin-2-yl)phenyl)cyclobutanecarbonitrile]	8.4	1.7	23	13	(1.8x)	15		
Cn1cnnc1[C@]1(c2cccc(N3Cc4c(cc(CNC5(C)CCC5)cc4C(F)(F)F)C3=O)c2)C[C@](C)(F)C1 [Compound 30, 2-(3-((1s,3s)-3-fluoro-3-methyl-1-(4-methyl-4H-1,2,4-triazol-3-yl)cyclobutyl)phenyl)-6-(((1-methylcyclobutyl)amino)methyl)-4-(trifluoromethyl)isoindolin-1-one]	3.8	2.6	27	17	(1.6x)	9.8		
Cn1cnnc1C1(c2cccc(N3Cc4c(cc(CNC5(C)CCC5)cc4C(F)(F)F)C3=O)c2)C[S+]([O-])C1 (stereo not drawn) [Compound 331, 2-(3-((1r,3r)-3-(4-methyl-4H-1,2,4-triazol-3-yl)-1-oxidothietan-3-yl)phenyl)-6-(((1-methylcyclobutyl)amino)methyl)-4-(trifluoromethyl)isoindolin-1-one]	8	15	110	29	3.8x	120		
CO[C@H]1C[C@](c2cc(NC3COC3)cc(N3Cc4c(cc(CNC5(C)CCC5)cc4C(F)(F)F)C3=O)c2)(c2nncn2C)C1 [Compound 234, 2-(3-((1r,3r)-3-methoxy-1-(4-methyl-4H-1,2,4-triazol-3-yl)cyclobutyl)-5-(oxetan-3-ylamino)phenyl)-6-(((1-methylcyclobutyl)amino)methyl)-4-(trifluoromethyl)isoindolin-1-one]	10	7.4	140	25	5.6x	76		
CC(=O)C1CC([C@@H](c2cccc(N3Cc4c(cc(CNC5(C)CCC5)cc4C(F)(F)F)C3=O)c2)c2nncn2C)C1 (single isomer, unassigned) [Compound 384]	5.6	7	66	24	2.8x	39		
Cn1cnnc1[C@H](c1cccc(N2Cc3c(cc(CNC4(C)CCC4)cc3C(F)(F)F)C2=O)c1)n1ccnc1 (single isomer, unassigned) [Compound 345]	3	1300	11000	2400	4.4x	4100		

The next lines start with the values.

Fold of selectivity [1] [×]	Kd [1] [nM]	IC50 (c-Cbl) [nM]	IC50 (Cbl-b) [nM]	fold-selectivity (Cbl-b over C-cbl) (Cbl-b)	Kd (c-Cbl (residues 47-435)) [nM]	IC50 (Cbl-b; Example 121) [nM]	(fold-selectivity) Cbl-b and C-Cbl Selectivity (Cbl-b) [x]	Structure (SMILES)
8.1	55	180			450	22	8.0	CO[C@H]1C[C@](c2cccc(N3Cc4c(cc(CN[C@@H]5C[C@H]5C(C)(F)F)cc4C(F)(F)F)C3=O)c2)(c2nncn2C)C1 (single isomer, unassigned) [Compound 506]
13	13	260			200	26	10	CO[C@H]1C[C@](c2cccc(N3Cc4c(cc(CN[C@]5(C)C[C@H](O)C5)cc4C(F)(F)F)C3=O)c2)(c2nncn2C)C1 [Compound 484, 6-((((1s,3S)-3-hydroxy-1-methylcyclobutyl)amino)methyl)-2-(3-((1r,3R)-3-methoxy-1-(4-methyl-4H-1,2,4-triazol-3-yl)cyclobutyl)phenyl)-4-(trifluoromethyl)isoindolin-1-one]
4.8	42	200			170	37	5.1	Cn1cnnc1[C@@H](c1cccc(N2Cc3c(cc(CNC4(C)CCC4)cc3C(F)(F)F)C2=O)c1)C1(O)CCC1 (single isomer, unassigned) [Compound 429]
13	190	510			2500	160	3.1	Cn1cnnc1[C@H](c1cccc(N2Cc3c(cc([C@H](NC4(C)CCC4)C4CCC4)cc3C(F)(F)F)C2=O)c1)C1COC1 (single isomer, unassigned) [Compound 434]
14	7.4	67			110	13	5.2	CO[C@H]1C[C@](c2cccc(N3Cc4c(cc(CNC56CC(C5)C6)cc4C(F)(F)F)C3=O)c2)(c2nncn2C)C1 [Compound 485, 6-((bicyclo[1.1.1]pentan-1-ylamino)methyl)-2-(3-((1r,3r)-3-methoxy-1-(4-methyl-4H-1,2,4-triazol-3-yl)cyclobutyl)phenyl)-4-(trifluoromethyl)isoindolin-1-one]
